The results in this text go back to publication PMC6271099, “Synthesis and Biological Evaluation of Novel 2-Methoxypyridylamino-Substituted Riminophenazine Derivatives as Antituberculosis Agents” (Molecules, 2014).

Molecules are shown by their SMILES. ≈ marks a conversion by molar mass, not a printed value.

Data set [1] has as its system M. tuberculosis H37Rv. Description: Microplate Alamar Blue Assay (MABA), in vitro antituberculosis activity (MIC). Particulars: Mycobacterium tuberculosis, 96-well plate. The data set is classed as cell-based. For orientation: The colour change of resazurin is a common sign of viable cells or microbes.
A short description of data set [2]: Cytotoxicity using Vero cells. Particulars: African green monkey, Vero cells.
The next data set has as its system Vero cells. Description: Cytotoxicity using Vero cells.
The test system of data set [3] is M. tuberculosis H37Rv. Description: In vivo acute M. tuberculosis H37Rv infection assay in mice. Set-up: species or system Mycobacterium tuberculosis. The conditions noted are these: for logCFU/lung: BALB/c mice infected with M. tuberculosis H37Rv, 20 mg/kg, after 30 days of treatment, mean ± SD, n = 5.
Data set [4] in a line: Preliminary multidose in vivo toxicity study in mice. Particulars: oral 500 mg/kg once daily for 4 days; for Safety in mice (in words): 7-day observation; for Number of animals that survived/Total number of animals: followed by 7-day observation.
For data set [5] the following is noted: as compared to CFZ.
A short description of data set [6]: Preliminary mouse pharmacokinetic study. Particulars: plasma, po, 20 mg/kg.
[7] abbreviates: mouse model infected by M. tuberculosis H37Rv.

In general, MIC refers to the smallest concentration in the dilution series that meets the test's criterion for growth inhibition. High values mean weaker potency, low ones greater potency. As usually defined, the melting point is the temperature of the solid-liquid transition. In general, IC50 refers to the midpoint of a concentration-inhibition curve. High values mean a need for much substance, low ones inhibition by little substance. In turn, `COc1ncccc1Nc1cc2nc3ccccc3n(-c3cccc(Cl)c3)c-2cc1=NC1CCC1` [Compound 12, 5-(3-Chlorophenyl)-3-cyclobutylimino-2-(2-methoxy-3-pyridyl)amino-3,5-dihydrophenazine] had a melting point of 205 to 208 °C. In the data set with M. tuberculosis H37Rv [1], this compound showed an MIC of 0.06 µg/mL (≈ 0.124 µM). The concentration for half-maximal inhibition (IC50) in data set [2] was > 64 µg/mL.
In turn, `COc1ncccc1Nc1cc2nc3ccccc3n(-c3ccc(Cl)c(Cl)c3)c-2cc1=NC1CCC(OC)CC1` (centres unmarked) [Compound 25, 5-(3,4-Dichlorophenyl)-3-(4-methoxycyclohexyl)imino-2-(2-methoxy-3-pyridyl)amino-3,5-dihydro-phenazine] displayed a melting point of 215 to 217 °C. 0.059 µg/mL (≈ 0.103 µM) was the least that counted as inhibitory with M. tuberculosis H37Rv [1] (MIC). The half-inhibitory concentration (IC50) in data set [2] was > 64 µg/mL.
As to `COc1ncccc1Nc1cc2nc3ccccc3n(-c3ccc(F)cc3)c-2c/c1=N\C(C)C` [TBI-1004, reference compound], the lowest concentration to inhibit growth with M. tuberculosis H37Rv [1] (MIC) was 0.038 µg/mL (≈ 0.0838 µM). In data set [2], the IC50 is > 64 µg/mL.
For the compound `COc1ncccc1Nc1cc2nc3ccccc3n(-c3ccc(F)c(F)c3)c-2cc1=NC1CC1` [Compound 16, 5-(3,4-Difluorophenyl)-3-cyclopropylimino-2-(2-methoxy-3-pyridyl)amino-3,5-dihydrophenazine], the melting point is 213 to 214 °C. In the data set on M. tuberculosis H37Rv [1], this compound had an MIC of 0.014 µg/mL (≈ 0.0298 µM). In addition, in data set [2], 25.5 µg/mL (≈ 54.3 µM) corresponded to half-maximal inhibition (IC50). Further, the “SI (selectivity index IC50/MIC)” value in the data set on Vero cells worked out at 1822.
Compound `COc1ncccc1Nc1cc2nc3ccccc3n(-c3cccc(Cl)c3)c-2cc1=NC1CCCCC1` [Compound 13, 5-(3-Chlorophenyl)-3-cyclohexylimino-2-(2-methoxy-3-pyridyl)amino-3,5-dihydrophenazine] registered a melting point of 197 to 201 °C. Further, the MIC against M. tuberculosis H37Rv [1] turned out to be 0.057 µg/mL (≈ 0.112 µM). In data set [2], 53.3 µg/mL (≈ 104 µM) corresponded to half-maximal inhibition (IC50). Moreover, the “SI (selectivity index IC50/MIC)” value with Vero cells was found to be 934.
Turning to `COc1ncccc1Nc1cc2nc3ccccc3n(-c3cccc(Cl)c3)c-2cc1=NC1CC1` [Compound 11, 5-(3-Chlorophenyl)-3-cyclopropylimino-2-(2-methoxy-3-pyridyl)amino-3,5-dihydrophenazine], the melting point fell in the range of 211 to 214 °C. For the same compound, in the data set with M. tuberculosis H37Rv [1], the MIC was determined as 0.03 µg/mL (≈ 0.0641 µM). Moreover, half-maximal inhibition in data set [2] (IC50) was put at 50.9 µg/mL (≈ 109 µM). Besides, in the data set with Vero cells, the “SI (selectivity index IC50/MIC)” value is 1696.
For `COc1ncccc1Nc1cc2nc3ccccc3n(-c3cccc(Cl)c3)c-2cc1=NC1CCOCC1` [Compound 14, 5-(3-Chlorophenyl)-3-(4-tetrahydropyranyl)imino-2-(2-methoxy-3-pyridyl)amino-3,5-dihydrophenazine], in that order: 203 to 206 °C, 0.025 µg/mL (≈ 0.0488 µM), 23.4 µg/mL (≈ 45.7 µM) and 936.
`COc1ncccc1Nc1cc2nc3ccccc3n(-c3ccc(Cl)c(Cl)c3)c-2cc1=NC1CCC1` [Compound 23, 5-(3,4-Dichlorophenyl)-3-cyclobutylimino-2-(2-methoxy-3-pyridyl)amino-3,5-dihydrophenazine] registered a melting point of 216 to 219 °C. Further, 0.06 µg/mL (≈ 0.116 µM) was the least that counted as inhibitory against M. tuberculosis H37Rv [1] (MIC). In data set [2], the half-maximal inhibitory concentration (IC50) is > 64 µg/mL.
In the data set on M. tuberculosis H37Rv [1], `COc1ncccc1Nc1cc2nc3ccccc3n(-c3ccc(Cl)c(Cl)c3)c-2cc1=NC1CC1` [Compound 22, 5-(3,4-Dichlorophenyl)-3-cyclopropylimino-2-(2-methoxy-3-pyridyl)amino-3,5-dihydrophenazine] registered a minimum inhibitory concentration (MIC) of 0.025 µg/mL (≈ 0.0498 µM). The compound further returned a logCFU/lung with M. tuberculosis H37Rv [3] of 8.06 ± 0.13. The “Efficacy in mouse model (in words)” value in the data set with M. tuberculosis H37Rv [3] (setting [7]) is “failed to display efficacy”. Also, in data set [2], the half-maximal inhibitory concentration (IC50) was > 64 µg/mL. In data set [4], the “Safety in mice (in words)” value is on record as “good safety” and the “Number of animals that survived/Total number of animals” value is recorded as 6/6.
With `COc1ncccc1Nc1cc2nc3ccccc3n(-c3ccc(F)c(F)c3)c-2cc1=NC1CCC(OC)CC1` (centres unmarked) [Compound 20, 5-(3,4-Difluorophenyl)-3-(4-methoxycyclohexyl)imino-2-(2-methoxy-3-pyridyl)amino-3,5-dihydro-phenazine], the melting point was in the range of 214 to 215 °C. Moreover, in the data set with M. tuberculosis H37Rv [1], it took 0.056 µg/mL (≈ 0.103 µM) to inhibit growth (MIC). In data set [2], the half-maximal inhibitory concentration (IC50) was > 64 µg/mL.
The compound `COc1ncccc1Nc1cc2nc3ccccc3n(-c3ccc(F)c(F)c3)c-2cc1=NC1CCCCC1` [Compound 18, 5-(3,4-Difluorophenyl)-3-cyclohexylimino-2-(2-methoxy-3-pyridyl)amino-3,5-dihydrophenazine] had a melting point of 218 to 219 °C. The lowest concentration to inhibit growth against M. tuberculosis H37Rv [1] (MIC) was 0.03 µg/mL (≈ 0.0586 µM). Besides, the IC50 in data set [2] was > 64 µg/mL.
For `COc1ncccc1Nc1cc2nc3ccccc3n(-c3cccc(F)c3)c-2cc1=NC(C)C` [Compound 8, 5-(3-Fluorophenyl)-3-isopropylimino-2-(2-methoxy-3-pyridyl)amino-3,5-dihydrophenazine], the melting point fell in the range of 198 to 199 °C. In addition, inhibition of growth with M. tuberculosis H37Rv [1] (MIC) required 0.06 µg/mL (≈ 0.132 µM). This compound also yielded an IC50 in data set [2] of 2.65 µg/mL (≈ 5.84 µM). In addition, the “SI (selectivity index IC50/MIC)” value in the data set on Vero cells came to 44.
Consider `COc1ncccc1Nc1cc2nc3ccccc3n(-c3ccc(Cl)c(Cl)c3)c-2cc1=NC(C)C` [Compound 21, 5-(3,4-Dichlorophenyl)-3-isopropylimino-2-(2-methoxy-3-pyridyl)amino-3,5-dihydrophenazine], for which the melting point was in the range of 245 to 247 °C. Besides, in the data set with M. tuberculosis H37Rv [1], 0.099 µg/mL (≈ 0.196 µM) was the least that counted as inhibitory (MIC). Also, in data set [2], the IC50 was > 64 µg/mL.
For the compound `COc1ncccc1Nc1cc2nc3ccccc3n(-c3cccc(Cl)c3)c-2cc1=NC(C)C` [Compound 10, 5-(3-Chlorophenyl)-3-isopropylimino-2-(2-methoxy-3-pyridyl)amino-3,5-dihydrophenazine], the melting point lay in the range of 215 to 217 °C. This compound displayed a minimal inhibitory concentration (MIC) in the data set on M. tuberculosis H37Rv [1] of 0.25 µg/mL (≈ 0.532 µM). Also, the IC50 in data set [2] was found to be 5.1 µg/mL (≈ 10.9 µM). Also, the “SI (selectivity index IC50/MIC)” value in the data set on Vero cells was 20.
The term AUC(0-t) denotes exposure summed from dosing to a finite time, without extrapolation to infinity. As a reminder, the Cmax is the maximum level reached in the sampled fluid or tissue. By Tmax is commonly meant the time at which the peak concentration occurs. In general, half-life refers to how long it takes for the measured level to halve. Higher therefore signals slow loss. In turn, `COc1ncccc1Nc1cc2nc3ccccc3n(-c3ccc(F)c(F)c3)c-2cc1=NC(C)C` [Compound 15, 5-(3,4-Difluorophenyl)-3-isopropylimino-2-(2-methoxy-3-pyridyl)amino-3,5-dihydrophenazine] displayed an MIC with M. tuberculosis H37Rv [1] of 0.066 µg/mL (≈ 0.14 µM). This compound came in with a logCFU/lung in the data set with M. tuberculosis H37Rv [3] of 4.56 ± 0.38. In addition, the “Efficacy in mouse model (in words)” value in the data set on M. tuberculosis H37Rv [3] (setting [7]) is “excellent efficacy”. Moreover, the “Reduction of bacterial burden in the lungs as compared to the untreated control group” value in the data set with M. tuberculosis H37Rv [3] (mouse model infected by M. tuberculosis H37Rv, lungs) was 3.8 logs colony forming units (CFU). In data set [5], the “Discoloration of the ears, internal organs and fat tissues of the mice” value is given as “less intense”. In data set [2], the IC50 is > 64 µg/mL. Besides, in data set [6], the exposure AUC(0-t) amounted to 21200 ng·h/mL, the highest level (Cmax) was 1840 ng/mL, the Tmax amounted to 2 h and the half-life is 13.8 h. Also, in data set [4], the “Safety in mice (in words)” value is “good safety” and the “Number of animals that survived/Total number of animals” value is 5/5.
Take `CC(C)/N=c1\cc2n(-c3ccc(Cl)cc3)c3ccccc3nc-2cc1Nc1ccc(Cl)cc1` [CFZ, Clofazimine, reference compound]: the minimum inhibitory concentration (MIC) with M. tuberculosis H37Rv [1] stood at 0.12 µg/mL (≈ 0.253 µM). The compound further displayed a logCFU/lung in the data set on M. tuberculosis H37Rv [3] of 4.29 ± 0.58. Besides, the IC50 in data set [2] turned out to be 68.6 µg/mL (≈ 145 µM). In addition, the “SI (selectivity index IC50/MIC)” value with Vero cells worked out at 572. For the same compound, in data set [6], the AUC(0-t) was found to be 8220 ng·h/mL, the maximum concentration (Cmax) was found to be 470 ng/mL, the Tmax worked out at 2 h and the half-life is 27.1 h.
As for `COc1ncccc1Nc1cc2nc3ccccc3n(-c3cccc(F)c3)c-2cc1=NC1CCOCC1` [Compound 9, 5-(3-Fluorophenyl)-3-(4-tetrahydropyranyl)imino-2-(2-methoxy-3-pyridyl)amino-3,5-dihydro-phenazine], the melting point is 190 to 191 °C. The compound also yielded an MIC in the data set with M. tuberculosis H37Rv [1] of 0.061 µg/mL (≈ 0.123 µM). The IC50 in data set [2] amounted to 9.21 µg/mL (≈ 18.6 µM). For the same compound, in the data set on Vero cells, the “SI (selectivity index IC50/MIC)” value was determined as 151.
`COc1ncccc1Nc1cc2nc3ccccc3n(-c3ccc(F)c(F)c3)c-2cc1=NC1CCOCC1` [Compound 19, 5-(3,4-Difluorophenyl)-3-(4-tetrahydropyranyl)imino-2-(2-methoxy-3-pyridyl)amino-3,5-dihydro-phenazine]: the melting point was in the range of 255 to 256 °C. The compound also yielded a minimum inhibitory concentration (MIC) with M. tuberculosis H37Rv [1] of 0.067 µg/mL (≈ 0.13 µM). Moreover, the IC50 in data set [2] is > 64 µg/mL.
In turn, `COc1ncccc1Nc1cc2nc3ccccc3n(-c3ccc(F)c(F)c3)c-2cc1=NC1CCC1` [Compound 17, 5-(3,4-Difluorophenyl)-3-cyclobutylimino-2-(2-methoxy-3-pyridyl)amino-3,5-dihydrophenazine] gave a melting point of 200 to 201 °C. Further, inhibition of growth against M. tuberculosis H37Rv [1] (MIC) required 0.04 µg/mL (≈ 0.0827 µM). For the same compound, the IC50 in data set [2] is > 64 µg/mL.
On to `COc1ncccc1Nc1cc2nc3ccccc3n(-c3ccc(Cl)c(Cl)c3)c-2cc1=NC1CCOCC1` [Compound 24, 5-(3,4-Dichlorophenyl)-3-(4-tetrahydropyranyl)imino-2-(2-methoxy-3-pyridyl)amino-3,5-dihydro-phenazine], for which the melting point is 232 to 233 °C. Further, the minimum inhibitory concentration (MIC) against M. tuberculosis H37Rv [1] came out at 0.08 µg/mL (≈ 0.146 µM). In addition, in data set [2], the half-inhibitory concentration (IC50) is > 64 µg/mL.
